What was measured:
[1] = test system: erythrocytic glutathione peroxidase; assay: Prevention of the inactivation of glutathione peroxidase by hypochlorous acid; format: biochemical, bovine; details: 25 μM test molecule + 10 μM hypochlorous acid, 2 minutes at 37° C.; 100% = no hypochlorous acid and no test molecule
Description: In a 50 mM potassium phosphate buffer of pH 7.0 containing 0.1 mM DTPA, a quantity of erythrocytic glutathione peroxidase of bovine origin is incubated for 2 minutes at 37° C., at a final concentration of 1.5 U/ml, in the presence of 10 μM hypochlorous acid and in the presence or absence of a molecule described in the present invention (at 25 μM).
After incubation for 2 minutes, 100 μl of this reaction medium are then added to 1.5 ml of 50 mM Tris buffer of pH 7.6 (at 37° C.) containing 0.1 mM DTPA, 0.165 mM β-NADPH, 2.2 mM reduced glutathione and 1.1 U/ml of glutathione disulfide reductase.
Then, after the addition of 50 μl of 6.6 mM t-butyl hydroperoxide, the glutathione peroxidase activity is determined at 37° C. by measuring the decrease in absorbance at 340 nm for 2 minutes.
They are expressed as a percentage of the glutathione peroxidase activity determined under the same experimental conditions in the absence of hypochlorous acid and the test molecule.

[2] = test system: isolated and perfused rat heart; assay: Inhibition of cardiac necrosis induced by ischemia-reperfusion, perfused isolated heart (Example 16); details: 2 μM in perfusion medium 12 minutes prior to ischemia and during reperfusion
Description: Male Sprague-Dawley rats weighing between 250 and 350 grams are injected intraperitoneally with a solution of sodium heparinate (40 units/100 g). The rats are anesthetized with ether 30 minutes later. The heart is then quickly removed and perfused by Langendorff's method (see 0. LANGENDORFF: Pflugers Arch. Physiol. Mensch. Tiere; (1895); 61; page 291) with electrical stimulation at a frequency of 300/min. The perfusion solution, equilibrated with 95% of oxygen and 5% of carbon dioxide, consists of a modified Krebs-Henseleit buffer (pH 7.4) of the following composition: NaCl118 mM, KCl 4.7 mM, MgSO4 1.2 mM, CaCl2 1 mM, KH2 PO4 1.2 mM, NaHCO3 25 mM and glucose 11 mM. The whole set-up is thermostatically controlled at 37° C.
The functional state of the heart is monitored by measurement of the following hemodynamic parameters: heart rate, systolic and telediastolic ventricular pressures (the difference between these expressing the developed pressure) and minimal and maximal slopes of the pressure variations as a function of time. […]
In addition, the alteration of the myocardial tissue is evaluated by determining the concentration, in the perfusate, of two cytosolic enzymes released into the perfusion medium, namely creatine phosphokinase (CPK) and lactate dehydrogenase (LDH). […]

[3] = test system: double-stranded DNA; assay: Prevention of the degradation of DNA by the system Fe(II)-citrate/H2O2/ascorbate; format: biochemical, phage lambda; details: 25 μM test molecule (table) + 20 μM Fe(2+)-citrate, 200 μM ascorbate, 200 μM H2O2, 1 hour at 37° C.
Description: After this incubation for one hour, 220 U/ml of catalase are then added to the reaction medium and the integrity of the DNA is measured by spectrofluorimetry after the addition of 10 μl of a 5 mM solution of ethidium bromide to the reaction medium (excitation wavelength: 510 nm; emission wavelength: 590 nm).
The effect of the test molecule is measured by determining the percentage of intact DNA, the value of 100% being determined under the same experimental conditions in the absence of the system Fe(II)-citrate/H2 O2 /ascorbate and the test molecule.

[4] = test system: glucose-6-phosphate dehydrogenase; assay: Prevention of the inactivation of glucose-6-phosphate dehydrogenase by the system Cu(II)/ascorbate/O2; format: biochemical, Leuconostoc mesenteroides; details: 25 μM test molecule + 4.5 μM Cu(2+) + 360 μM ascorbate, 5 minutes at 37° C.; 100% = no system and no test molecule
Description: In a 50 mM potassium phosphate buffer of pH 7.0, a quantity of glucose-6-phosphate dehydrogenase (purified from Leuconostoc mesenteroides) is incubated for 5 minutes at 37° C., at a final concentration of 1.2 U/ml, in the presence of 4.5 μM copper sulfate and 360 μM ascorbate and in the presence or absence of a molecule described in the present invention (at 25 μM). After incubation for 5 minutes, 20 μl of this reaction medium are then added to 980 μl of 50 mM Tris buffer of pH 7.5 (at 37° C.) containing 0.380 mM β-NADP^+, 3.3 mM glucose-6-phosphate and 6.3 mM magnesium chloride. The glucose-6-phosphate dehydrogenase activity is then determined at 37° C. by measuring, the increase in absorbance at 340 nm for 7 minutes. They are expressed as a percentage of the glucose-6-phosphate dehydrogenase activity determined under the same experimental conditions in the absence of the system Cu(II)/ascorbate/O2 and the test molecule.

[5] = pulsed radiolysis or Fenton reaction; cited from earlier work
[6] = in the presence of metal salts (Fe^++); cited from earlier work
[7] = physiological conditions (concentrations and pH); cited from earlier work
[8] = physiological conditions (concentrations and pH); cited from earlier work; remark: listed apart in the source
[9] = test system: ferryl forms of the hemoproteins; details: physiological pH; produced in the presence of H2O2; cited from earlier work
[10] = quenching excited states of photosensitizers such as rose bengal; cited from earlier work
[11] = test system: oxyhemoglobin; details: micromolar concentrations; sodium nitrite; in vitro; cited from earlier work
[12] = test system: isolated rat heart; details: 100 μmolar; after 15 min of ischemia; cited from earlier work
[13] = test system: isolated and perfused rat heart; assay: Inhibition of cardiac necrosis induced by ischemia-reperfusion, modified perfusion solution (Example 17); details: 20 μM BXT 52053, 600 μM albumin (BSA) or 100 μM L-ergothioneine; 12 minutes before ischemia and first 30 minutes of reperfusion; FIG. 3
Description: In the same experimental model as that described in Example 16, the composition of the perfusion solution was modified such that it contains 2.5 mM CaCl2 and 2.4 mM MgCl2) (all else being moreover equal). The effect of BXT 52053 is then compared to that of albumin and L-ergothioneine.
This study is carried out by perfusing the heart with the perfusion solution containing 20 μM BXT 52053, or 600 μM albumin (BSA), or 100 μM L-ergothioneine, during the 12 minutes preceding the period of ischemia, then during the first 30 minutes of post-ischemic reperfusion.
The degradation of the myocardial tissue due to the ischemia and/or reperfusion is evaluated by determining the total quantity of creatine phosphokinase (CPK) released into the perfusate during the period of reperfusion. The results are expressed in milliunits of enzyme activity per milligram of heart and per minute.

[14] = test system: isolated rat heart; assay: Recovery of the developed pressure of a heart subjected to ischemia-reperfusion (Example 18); details: 10 μM BXT 52051 or 2 μM BXT 52052; 12 minutes prior to ischemia and during reperfusion; FIG. 4
Description: In the same experimental model as that described in Example 17, the study of BXT 52051 and BXT 52052 is carried out by perfusing the heart with the perfusion medium containing 10 μM BXT 52051 or 2 μM BXT 52052 for 12 minutes prior to the period of ischemia, as well as during the reperfusion. The degradation of the cardiac function is evaluated from the measurement of hemodynamic parameters (systolic and telediastolic ventricular pressures) by determining over time the percentage recovery of the developed pressure (difference between systolic and telediastolic pressure) during the reperfusion, compared to that recorded just before the period of ischemia (stabilized developed pressure).

| % glutathione peroxidase activity [1] | % glucose-6-phosphate dehydrogenase activity [4] | Molecule | % intact DNA [3] | other results |
| --- | --- | --- | --- | --- |
| 94.7% | 93.7% | CCOC(=O)CCc1c[nH]c(=S)[nH]1 [BXT 52021, ethyl 3-(2'-mercaptoimidazol-4'-yl)propanoate] | 78.0% | systolic pressure of heart subjected to ischemia-reperfusion [2]: maintained |
| 94.8% | 92.3% | O=C(O)CCc1c[nH]c(=S)[nH]1 [BXT 52020, 3-(2'-mercaptoimidazol-4'-yl)propanoic acid] | 76.2% | – |
| – | – | C[N+](C)(C)[C@@H](Cc1c[nH]c(=S)[nH]1)C(=O)[O-] [L-ergothioneine, L-(+)-Ergothioneine] | – | reaction with OH radicals [5]: kinetics close to the maximum rate of diffusion; stimulation of peroxidation of polyunsaturated fatty acids [6]: does not stimulate the peroxidation of polyunsaturated fatty acids; reaction with hydrogen peroxide [7]: reacts neither; reaction with superoxide anion [8]: reacts neither; reduction of ferryl forms of hemoproteins [9]: reduces the ferryl forms of the hemoproteins; photoproduction of singlet oxygen [10]: inhibits the photoproduction of singlet oxygen; inhibition of methemoglobin formation [11]: effectively inhibit the formation of methemoglobin; extent of cell necrosis (lactate dehydrogenase activity of the effluent) [12]: limits the extent of cell necrosis; total quantity of CPK released into the perfusate during 30 minutes of reperfusion [13]: no significant effect |
| – | – | C[N+](C)(C)CC(CC(=O)[O-])OC(=O)CCc1c[nH]c(S)n1 (stereo not drawn) [BXT 52052, carnitine 3-(2'-mercaptoimidazol-4'-yl)propanoate] | – | recovery of the ventricular developed pressure during reperfusion [14]: recovered much more rapidly and reaches a higher value |
| 93.2% | 92.3% | NC(=O)CCc1c[nH]c(=S)[nH]1 [BXT 52029, 3-(2'-mercaptoimidazol-4'-yl)propanamide] | 78.0% | – |
| – | – | albumin: albumin (BSA), comparison agent in the perfusion solution | – | total quantity of CPK released into the perfusate during 30 minutes of reperfusion [13]: no significant effect |
| 94.4% | 94.4% | NCCc1c[nH]c(=S)[nH]1 [BXT 52022, 2-(2'-mercaptoimidazol-4'-yl)ethylamine] | 80.2% | – |
| 99.1% | 104.6% | CN(C)[C@@H](Cc1c[nH]c(=S)[nH]1)C(=O)O [BXT 52040, 2'-mercapto-Nα,Nα-dimethyl-L-(+)-histidine] | 75.3% | – |

Reference: patent US6056965A, “2-mercapto-imidazole derivatives substituted in position 4 (or 5) as antioxidizing agents, method of preparation and applications in the pharmaceutical, cosmetic or food industries” (Oxis Isle of Man, Limited, priority 1993, dated 2000)
